Measurements from patent US20250250298A1, “ONCOLYTIC PEPTIDE AND USE THEREOF” (Rise Biopharmaceuticals Inc., priority 2022, published 2025).
Where a SMILES comes first, the peptide text is derived from it.

Key:
[1] = system: PC9 (Human non-small cell lung cancer cell); assay: MTT cytotoxicity, PC9; assay type: cell-based; details: PC9, 24 hours incubation
Description: (§1) The MTT assay is a colorimetric method for measuring the activity of enzymes in living cells that reduces Thiazolyl blue tetrazolium bromide (MTT) to formazan dyes showing a purple color. In this embodiment, a colorimetric 3-(4.5-dimethylthiazol-2-yl)-2.5-diphenyltetrazodium bromide (MTT) viability assay was used to assess the in vitro cytotoxicity of oncolytic peptides.
(§2) The half inhibition concentration (IC50) is the concentration required by the oncolytic peptides to reach fifty percent inhibition. In one embodiment, the oncolytic peptides were used for IC50 test via MTT colorimetric assay.
(§3) Human lung cancer lines PC9 and A549 and murine pancreatic cancer cell line Panc02 were cultured in RPMI medium supplemented with 10% fetal bovine serum and antibiotic in this embodiment. Additionally, murine hepatoma cell line Hepa 1-6, murine melanoma cell line B16-F10, murine fibrosarcoma cell line MN-11, murine mammary cancer cell line E0771 and human diploid fibroblast (HFW) were cultured in DMEM medium supplemented with 10% fetal bovine serum and antibiotic. Cells were cultured in a humidified incubator containing 5% CO2 at 37° C.
(§4) All cancer cell lines were seeded in a 96-well plate with a concentration of 5000-8000 cells/100 μl/well and incubated for 24 hrs. After medium was removed, 100 μl fresh medium containing peptide (ranging from 50 μM to 0.8 μM) was added to the wells. Following 24 hours incubation, fresh medium with MTT (0.5 mg/ml) was replaced and incubated for 3 hours. After medium/MTT was removed, DMSO was added at 100 μl for dissolving the formazan crystal. Cell survival rate was calculated by measuring the absorbance at 540 nm using a Multi-labeled Microplate Reader (Sunrise™, TECAN).

HFW (Human fibroblast) = assay: MTT cytotoxicity, HFW; assay type: cell-based; details: 24 hours incubation
Description: as §1, §2, §3, §4

Panc02 = assay: MTT cytotoxicity, Panc02; assay type: cell-based, murine; details: Panc02, 24 hours incubation
Description: as §1, §2, §3, §4

[2] = system: EO771 (Murine mammary adenocarcinoma); assay: MTT cytotoxicity, EO771; assay type: cell-based; details: EO771, 24 hours incubation
Description: as §1, §2, §3, §4

[3] = system: SAS (Human tongue carcinoma); assay: MTT cytotoxicity, SAS; assay type: cell-based; details: 24 hours incubation
Description: as §1, §2, §4

[4] = system: A549 (Human non-small cell lung cancer cell); assay: MTT cytotoxicity, A549; assay type: cell-based; details: A549, 24 hours incubation
Description: as §1, §2, §3, §4

[5] = system: NCI-N87 (Human gastric carcinoma); assay: MTT cytotoxicity, NCI-N87; assay type: cell-based; details: NCI-N87, 24 hours incubation
Description: as §1, §2, §4

[6] = system: MN-11 (Murine fibrosarcoma); assay: MTT cytotoxicity, MN-11; assay type: cell-based; details: MN-11, 24 hours incubation
Description: as §1, §2, §3, §4

E0771 breast cancer = assay type: in vivo; details: E0771 tumor-bearing C57BL/6 mice
Description: FIGS. 7A-7B are schematic diagrams of E0771 breast cancer experiments. FIG. 7A: The right flank of the mouse was administrated with SEQ ID NO:9. […] (2×10^5E0771 cells per mouse/50 μl RPMI-1640). Palpable tumors (75 mm^3) were injected (IT.) with single doses of SEQ ID NO:9 dissolved in PBS (1.0 mg peptide/50 μl PBS) once a day for 5 consecutive days, and the vehicle control was saline only (0.9% NaCl).
Female C57BL/6 mice (4- to 6-week old) as allogeneic model animals were purchased from BioLASCO Taiwan Co., Ltd. and maintained in a specific pathogen-free and controlled environment. During the experiments, female mice, weighing 18.0-24.0 g each, were kept in groups of 4 to 6 animals per cage under climate-controlled conditions, with 12 h light/dark cycles and an ambient temperature. The mice were housed in an enriched individually ventilated cage (IVC) system with free access to standard rodent chow and water ad libitum. The animals were anesthetized during the experimental procedures with 2.5% isoflurane gas. The animals were monitored daily. […]
Tumor size was measured 3 times a week using a caliper, and the volume of tumors was calculated using the following formula: Tumor size (mm^3)=0.5×(width^2×length). […] The survival rates of tumor-bearing mice were observed and recorded continuously until all animals died. […]

[7] = system: HepG2 Cancer Cells (Human hepatocellular carcinoma); assay: MTT cytotoxicity, HepG2; assay type: cell-based; details: HepG2, 24 hours incubation
Description: as §1, §2, §4

[8] = system: OECM-1 (Human oral cancer cell); assay: MTT cytotoxicity, OECM-1; assay type: cell-based; details: OECM-1, 24 hours incubation
Description: as §1, §2, §4

[9] = system: HUVEC (Human Umbilical Vein Endothelial (Cell)); assay: MTT cytotoxicity, HUVEC; assay type: cell-based; details: 24 hours incubation
Description: as §1, §2, §4

B16-F10 melanoma = assay type: in vivo; details: B16-F10 tumor-bearing C57BL/6 mice
Description: FIGS. 1A-1B are schematic diagrams of B16-F10 melanoma experiments. The right flank of the mouse was administrated with SEQ ID NO:9, and the left flank of the mouse was untreated (tumor only) in FIG. 1A. […] (3×10^6B16-F10 cells per mouse/50 μl RPMI-1640). Palpable tumors (20-30 mm^3) were injected […] (IT.) with single doses of SEQ ID NO:9 dissolved in PBS (1.0 mg peptide/50 μl PBS) once a day for 5 consecutive days, and the vehicle control was saline only (0.9% NaCl).
Female C57BL/6 mice (4- to 6-week old) as allogeneic model animals were purchased from BioLASCO Taiwan Co., Ltd. and maintained in a specific pathogen-free and controlled environment. During the experiments, female mice, weighing 18.0-24.0 g each, were kept in groups of 4 to 6 animals per cage under climate-controlled conditions, with 12 h light/dark cycles and an ambient temperature. The mice were housed in an enriched individually ventilated cage (IVC) system with free access to standard rodent chow and water ad libitum. The animals were anesthetized during the experimental procedures with 2.5% isoflurane gas. The animals were monitored daily. All procedures were conducted according to the regulations of Laboratory Animal Care and Use Committee or Group Setup and Management and the law of Animal Protection.
Palpable tumors (for example, 20-30 mm^3 for B16-F10 tumor-bearing mice, 100 mm^3 for MN-11 tumor-bearing mice, 75 mm^3 for E0771 tumor-bearing mice) were injected (IT.) with single doses of SEQ ID NO:9 dissolved in PBS (1.0 mg peptide/50 μl PBS) once a day for 5 consecutive days, and the vehicle control was saline only (0.9% NaCl).
Tumor size was measured 3 times a week using a caliper, and the volume of tumors was calculated using the following formula: Tumor size (mm^3)=0.5×(width^2×length). The results were shown as volume±SEM. The survival rates of tumor-bearing mice were observed and recorded continuously until all animals died.
To evaluate the effect of SEQ ID NO:9 in vivo, the B16-F10 allogeneic model was used in C57BL/6 mice (FIGS. 1A-1B). […]

[10] = system: Hepa I-6 (Murine hepatocellular carcinoma); assay: MTT cytotoxicity, Hepa 1-6; assay type: cell-based; details: Hepa I-6, 24 hours incubation
Description: as §1, §2, §3, §4

[11] = IT. 1.0 mg once a day for 5 days, vs untreated controls
[12] = IT. 1.0 mg peptide/50 μl PBS once a day for 5 consecutive days, vs saline control

CC(C)C[C@H](NC(=O)[C@H](Cc1ccc2ccccc2c1)NC(=O)[C@H](CCCCN)NC(=O)[C@H](CC(C)C)NC(=O)[C@H](Cc1c[nH]c2ccccc12)NC(=O)[C@H](CCCCN)NC(=O)[C@H](CCCNC(=N)N)NC(=O)[C@H](Cc1c[nH]c2ccccc12)NC(=O)[C@H](CCCNC(=N)N)NC(=O)[C@H](CCCNC(=N)N)NC(=O)[C@H](CCCCN)NC(=O)[C@H](CCCCN)NC(=O)[C@H](CCCCN)NC(=O)[C@@H](N)CCCCN)C(=O)N[C@@H](C)C(=O)N[C@@H](CCCCN)C(N)=O [SEQ ID NO: 9, KKKK-RR-WRK-WLK-Nal-LA-K-NH2] (HELM PEPTIDE1{K.K.K.K.R.R.W.R.K.W.L.K.[O=C([C@H](Cc1ccc2ccccc2c1)N[*:1])[*:2]].L.A.K.[am]}$$$$V2.0; N-terminus assumed)
IC50 [1]: 3020 nM | IC50 (HFW (Human fibroblast)): 3380 nM | IC50 (Panc02): 2660 nM | IC50 [2]: 2010 nM | IC50 [3]: 6030 nM | IC50 [4]: 2790 nM | IC50 [5]: 2350 nM | IC50 [6]: 2900 nM | Survival (lifespan) (E0771 breast cancer; [11]): extended the lifespan | Tumor growth, treated tumor (right flank) (E0771 breast cancer; [12]): significantly inhibited tumor growth | IC50 [7]: 9810 nM | IC50 [8]: 6360 nM | IC50 [9]: 6320 nM | Survival (lifespan) (B16-F10 melanoma; [11]): extended the lifespan | Tumor growth, treated tumor (right flank) (B16-F10 melanoma; [12]): significantly inhibited tumor growth | Tumor growth, distal tumor (left side) (B16-F10 melanoma; untreated left flank, peptide IT. into right flank 1.0 mg once a day for 5 days): also inhibited | IC50 [10]: 1690 nM
